This assay addresses T1, Phosphodiesterase PDE8A1 (Homo sapiens, UniProt O60658).
T1 construct: host or cells: insect Sf9 cells
Briefly: Phosphodiesterase PDE8A1 enzyme assay. The settings on record: N=2, Example 3. Format: biochemical. An excerpt:
Reference standards are run as an integral part of each assay to ensure the validity of the results obtained. Reference Compounds: • Phosphodiesterase PDE10A2 Papaverine • Phosphodiesterase PDE11A4 Dipyridamole • Phosphodiesterase PDE1A MMPX • Phosphodiesterase PDE2A EHNA • Phosphodiesterase PDE3A Cilostamide • Phosphodiesterase PDE4A1A Rolipram • Phosphodiesterase PDE4B1 Rolipram • Phosphodiesterase PDE5A Zaprinast • Phosphodiesterase PDE6 Zaprinast • Phosphodiesterase PDE7A IBMX • Phosphodiesterase PDE7B IBMX • Phosphodiesterase PDE8A1 Dipyridamole • Phosphodiesterase PDE9A2 Zaprinast
Phosphodiesterase PDE4A1A; Phosphodiesterase PDE4B1; Phosphodiesterase PDE10A2; Phosphodiesterase PDE11A4; Phosphodiesterase PDE2A; Phosphodiesterase PDE3A; Phosphodiesterase PDE7A; Phosphodiesterase PDE7B; and Phosphodiesterase PDE8A1: • Source: Human recombinant insect Sf9 cells • Substrate: 0.10 μM FAM-cAMP • Vehicle: 1.00% DMSO • Significance Crit.: ≥50% of max stimulation or inhibition • Incubation Buffer: 10 mM Tris-HCl, pH 7.2, 10 mM MgCl2, 0.05% NaN3, 0.1% phosphate-free BSA • Quantitation Method: Quantitation of Fluorescein-AMP-IMAP • Pre-Incub. Time/Temp: 15 minutes @25° C. • Incubation Time/Temp: 30 minutes @25° C.
IC50 values are determined by a non-linear, least squares regression analysis using MathIQ™ (ID Business Solutions Ltd., UK). […]

T1 sequence (O60658 whole entry): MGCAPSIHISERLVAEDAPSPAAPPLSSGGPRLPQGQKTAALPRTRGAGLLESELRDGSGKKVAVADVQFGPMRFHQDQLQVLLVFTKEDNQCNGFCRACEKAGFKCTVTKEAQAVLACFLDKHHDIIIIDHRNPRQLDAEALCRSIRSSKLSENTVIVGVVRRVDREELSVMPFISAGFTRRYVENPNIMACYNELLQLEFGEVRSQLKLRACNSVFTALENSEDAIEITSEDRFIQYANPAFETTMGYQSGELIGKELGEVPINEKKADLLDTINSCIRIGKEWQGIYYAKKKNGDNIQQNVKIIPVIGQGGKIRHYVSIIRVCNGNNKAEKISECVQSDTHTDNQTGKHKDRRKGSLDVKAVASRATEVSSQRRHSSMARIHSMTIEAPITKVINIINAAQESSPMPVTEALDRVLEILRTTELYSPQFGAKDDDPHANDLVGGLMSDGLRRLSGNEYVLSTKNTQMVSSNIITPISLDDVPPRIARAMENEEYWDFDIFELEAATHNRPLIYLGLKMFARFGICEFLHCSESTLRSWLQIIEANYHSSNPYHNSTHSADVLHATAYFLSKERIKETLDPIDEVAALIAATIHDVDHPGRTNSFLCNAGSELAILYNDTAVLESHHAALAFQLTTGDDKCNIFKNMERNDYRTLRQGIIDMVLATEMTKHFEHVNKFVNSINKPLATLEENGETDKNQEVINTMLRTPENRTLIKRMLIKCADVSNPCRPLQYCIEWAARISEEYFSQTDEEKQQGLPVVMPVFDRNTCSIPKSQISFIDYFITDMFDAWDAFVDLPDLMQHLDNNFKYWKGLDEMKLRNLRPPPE

The inhibition is the percentage by which the read-out fell short of the control. A high value points to a strong effect. `CNc1nc(Nc2ccccc2)nc(OCC(F)(F)C(F)F)n1` [compound of Formula (I), N^2-methyl-N^4-phenyl-6-(2,2,3,3-tetrafluoropropoxy)-1,3,5-triazine-2,4-diamine] came in with an inhibition at 10 µM of 0%.
